{"source": "paper PMC6426469", "about": "(Science Advances, 2019)", "origin": "cited, not measured here", "key": {"APP/PS1 mice [1]": {"test_system": "APP/PS1 mice", "settings": "1-week treatment"}, "APP/PS1 mice [2]": {"test_system": "APP/PS1 mice", "settings": "prolonged treatment for 30 days"}, "DG granule cells": {"test_system": "DG granule cells", "settings": "previous study"}}, "data": [{"smiles": "C#CCN(C)[C@H](C)Cc1ccccc1", "note": "[Selegiline, selegiline]", "values": [{"measurement": "memory impairments, passive avoidance test", "setting": "APP/PS1 mice [1]", "result": "effective in rescuing memory impairments"}, {"measurement": "spatial memory impairments, Morris water maze", "setting": "APP/PS1 mice [2]", "result": "failed to significantly reverse spatial memory impairments"}]}, {"smiles": "C[C@H](NCc1ccc(OCc2cccc(F)c2)cc1)C(N)=O", "note": "[safinamide]", "values": [{"measurement": "efficacy on spike probability", "setting": "DG granule cells", "result": "showed prolonged efficacy"}]}]}
